For experiment [1], the system named is BDF1 mice, L1210 leukemia sc, survival T/C. In words: NCI In Vivo Anticancer Drug Screen. Data for tumor model L1210 Leukemia (subcutaneous) in B6D2F1 (BDF1) mice. The settings on record: endpoint: median survival time, higher = longer survival. The procedure, abridged:
(§1)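 Antitumor activity is assessed in mice with transplanted tumors by comparing the treated group (T) with the vehicle control group (C).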

Experiment [2] relates to BDF1 mice, L1210 leukemia sc. The description is as above. The settings on record: endpoint: mean tumor weight, vehicle: water, higher = larger tumour. The procedure, abridged:
as §1

The source of these data is PubChem BioAssay AID250 (DTP/NCI, 2004).

Each structure is given as a SMILES string. Several values for one entry are separate records, joined by “and”; a condition that tells them apart may be missing. Equal values may be shown once. Inconclusive results and toxic doses are left out.

Take `O=C(NO)c1ccncc1`: the T/C is 108 % of control in experiment [1] (dose: 67.0 mg/kg/injection, schedule: Q#B X027 (ip), vehicle: water); 108 % of control in experiment [1] (dose: 133.0 mg/kg/injection, schedule: Q#B X027 (ip), vehicle: water); 108 % of control in experiment [1] (dose: 200.0 mg/kg/injection, schedule: Q01DX009 (ip), vehicle: water); 116 % of control in experiment [1] (dose: 200.0 mg/kg/injection, schedule: Q#B X027 (ip), vehicle: water); 108 % of control in experiment [1] (dose: 267.0 mg/kg/injection, schedule: Q#B X027 (ip), vehicle: water); 68 % of control in experiment [2] (dose: 67.0 mg/kg/injection, schedule: Q#B X027 (ip)). In addition, the T/C in experiment [2] (dose: 133.0 mg/kg/injection, schedule: Q#B X027 (ip)) was 58 % of control; in experiment [2] (dose: 200.0 mg/kg/injection, schedule: Q01DX009 (ip)) it was 60 % of control; in experiment [2] (dose: 200.0 mg/kg/injection, schedule: Q#B X027 (ip)), 57 % of control; in experiment [2] (dose: 267.0 mg/kg/injection, schedule: Q#B X027 (ip)) it was 41 % of control.
On to `COc1cccc2c1C(=O)c1c(O)c3c(c(O)c1C2=O)C[C@@](O)(C(C)=O)C[C@@H]3OC1CC(N)C(O)C(C)O1` (stereo partly specified), for which the T/C was 88 % of control in experiment [1] (dose: 1.0 mg/kg/injection, schedule: Q04DX003 (ip), vehicle: saline); 90 % of control in experiment [1] (dose: 2.0 mg/kg/injection, schedule: Q04DX003 (ip), vehicle: saline); 95 % of control and 100 % of control in experiment [1] (dose: 3.0 mg/kg/injection, schedule: Q01DX Z (sc), vehicle: saline); 95 % of control in experiment [1] (dose: 3.1 mg/kg/injection, schedule: Q01DX Z (sc), vehicle: saline); 89 % of control in experiment [1] (dose: 4.0 mg/kg/injection, schedule: Q04DX003 (ip), vehicle: saline); 100 % of control and 115 % of control in experiment [1] (dose: 5.0 mg/kg/injection, schedule: Q01DX Z (sc), vehicle: saline). Also, the T/C in experiment [1] (dose: 5.0 mg/kg/injection, schedule: Q01DX Z (sc), vehicle: water) was 104 % of control; in experiment [1] (dose: 5.2 mg/kg/injection, schedule: Q01DX Z (sc), vehicle: saline), 100 % of control; in experiment [1] (dose: 6.5 mg/kg/injection, schedule: Q04DX003 (sc), vehicle: water) it was 105 % of control and 111 % of control; in experiment [1] (dose: 8.4 mg/kg/injection, schedule: Q01DX Z (sc), vehicle: saline) it was 150 % of control; in experiment [1] (dose: 10.8 mg/kg/injection, schedule: Q04DX003 (sc), vehicle: water), 109 % of control and 111 % of control; in experiment [1] (dose: 14.0 mg/kg/injection, schedule: Q01DX Z (sc), vehicle: saline), 120 % of control. For the same molecule, the T/C in experiment [1] (dose: 14.0 mg/kg/injection, schedule: Q01DX Z (sc), vehicle: water) is 123 % of control; in experiment [1] (dose: 23.0 mg/kg/injection, schedule: Q01DX Z (sc), vehicle: saline), 110 % of control and 120 % of control; in experiment [1] (dose: 23.0 mg/kg/injection, schedule: Q01DX Z (sc), vehicle: water), 109 % of control; in experiment [1] (dose: 24.0 mg/kg/injection, schedule: Q01DX Z (sc), vehicle: saline), 120 % of control; in experiment [1] (dose: 30.0 mg/kg/injection, schedule: Q04DX003 (sc), vehicle: water) it was 99 % of control and 100 % of control; in experiment [1] (dose: 39.0 mg/kg/injection, schedule: Q01DX Z (sc), vehicle: saline) it was 110 % of control. The T/C in experiment [1] (dose: 39.0 mg/kg/injection, schedule: Q01DX Z (sc), vehicle: water) is 104 % of control; in experiment [1] (dose: 40.0 mg/kg/injection, schedule: Q01DX Z (sc), vehicle: saline), 110 % of control; in experiment [1] (dose: 65.0 mg/kg/injection, schedule: Q01DX Z (sc), vehicle: water) it was 95 % of control.
